{
  "source": "paper PMC9365693",
  "about": "(Nature, 2022)",
  "key": {"[1]": {"assay": "Scalar TOBSY ssNMR: mobility of the lipid II pentapeptide in the complex", "assay_type": "binding", "settings": "8 kHz MAS, 300 K, compared with R4L10-teixobactin", "from_the_text": "(§1) T1rho trajectories were fit to single exponentials.\nInterfacial contacts are labelled in green. Lipid II pentapeptide signals are marked with an asterisk, e.g., A1*αβ. b) Zoom into the spectrum acquired with 300 ms magnetization transfer. […] The spectrum is based on a scalar 2D ^13C^13C TOBSY[35] ssNMR experiment with the complex formed by ^13C,^15N-teixobactin and ^13C,^15N-Lipid II in liposomes acquired at 950 MHz, 8 kHz MAS, and 300 K temperature. Teixobactin and the Lipid II sugars are not visible in the spectrum (cyan). Conversely, the last three residues (Lys3-Ala4-Ala5) of the Lipid II pentapeptide give scalar signals indicating high mobility and no involvement in complex formation. […] Likewise, the K3αγ signal of the third pentapeptide residue was only visible for R4L10-teixobactin. […] All experiments were performed in triplicates. All the parameter values are shown as mean +/− SD."}, "[2]": {"assay": "HS-AFM control experiments (membrane height; bilayers without lipid II)", "set-up": "membrane height: unit not given here", "settings": "for membrane height: source data Ext. Data Fig. 6, DOPC + 1% lipid II, after 30 mins incubation with 800 nM", "experimental": "(§2) The HS-AFM images were acquired in amplitude modulation tapping mode in liquid using a high-speed atomic force microscope (RIBM). Short cantilevers (approximately 7 μm) with a nominal spring constant of 0.15 N m^−1 were used (USC-F1.2-k0.15, NanoWorld). A minimal imaging force was applied by using a small set-point amplitude of 0.8 nm (for a 1 nm free amplitude). […] The lipid bilayer was obtained by incubating LUVs containing DOPC and lipid II (prepared as mentioned above) on top of a freshly cleaved mica for 20–30 min. […] Imaging was started on the lipid bilayer surface in recording buffer. […] Images were primarily processed using built-in scripts (RIBM) in Igor Pro (Wavemetrics) and analysed using ImageJ software. The images or videos were corrected minimally for tilt, drift and contrast. […] Image acquisition rate varies from 0.5 frames per second to 2 frames per seconds (see Fig. 2, Extended Data Figs. 5, 6, or legends of Supplementary Videos 1 and 2), and the line rate varies from 150 lines per second to 400 lines per second. […] Stated errors are standard deviation.\nExtended Data Fig. 6 HS-AFM control experiments. […] Source data"}, "[3]": {"assay": "Mobility-edited H(H)C ssNMR: membrane topology of lipid II-bound teixobactin", "settings": "300 K, T2 filter 2.5 ms", "from_the_text": "as §1\nExtended Data Fig. 8 The membrane topology of the complex. a) and b) show mobility-edited (‘T2-filtered’) ^1H(^1H)^13C ssNMR experiments[37] of ^13C,^15N-teixobactin bound to Lipid II. […] For each residue, peak areas were integrated using Topspin 4.06. Signals that were used for the integration are annotated. e) Membrane topology visualized with the ssNMR structure. Hydrophilic (in blue) and hydrophobic (brown) residues are sharply separated above and below the β-sheet, respectively. Note that the N-terminal Phe1 at the rim of the β-sheet has higher water accessibility, potentially because of fraying and mobility effects. f) Normalized contacts to water and lipid-tails, back-calculated over the MD simulation based on our ssNMR structure. g) Membrane topology using a different structure of the calculated ssNMR ensemble. As shown in Extended Data Fig. 9a, the despi-cycle is plastic and can point up towards the water phase, bringing End10 well-above the membrane-plane. Source data"}, "[4]": {"assay": "Confocal microscopy of GUVs doped with Atto 550-labelled lipid II", "settings": "DOPC GUVs with 0.1 mol% Atto 550-lipid II, 1 μM teixobactin, 3 h; biological triplicates", "experimental": "We used a self-assembled GUV cell, aligned with two titanium electrodes in a closed Teflon chamber (volume = 500 μl). Of 0.5 mM DOPC doped with Atto 550-labelled lipid II (0.1 mol%), 1 μl was brushed on the titanium electrodes. The GUV cell was dried under vacuum. Next, the chamber was filled with 350 μl 0.1 M sucrose solution, the electrodes dipped in and connected to a power supply of a sine wave (2.5 V; 10 Hz; 90 min). Each microscopy slide (m-slide 8 well, Ibidi) was incubated with 350 μl BSA solution (1 mg ml^−1) for 1 h. To detach the GUVs, the power supply was changed to square wave (2 V; 2 Hz; 15 min). The slides were washed once with water and 0.1 M glucose solution. The slides were immersed in 300 μl of 0.1 M glucose solution to which 50 μl of GUVs was added. […] GUVs were imaged using Zeiss LSM 880 with ×63/1.2 NA glycerol and ×100/1.2 NA oil objective lenses. The Atto 550 label appeared red upon excitation by the 560-nm laser. The brightfield was used for detection and location of the GUVs and to observe their shape. Zeiss Zen Black software was used for the analysis of the images."}, "[5]": {"assay": "15N T1rho ssNMR relaxation of lipid II-bound teixobactin", "settings": "60 kHz MAS, in membranes", "from_the_text": "as §1"}, "[6]": {"assay": "Pyrene-labelled lipid II excimer fluorescence (oligomerization)", "settings": "DOPC LUVs with 0.5 mol% pyrene-lipid II, 10 mM Tris-Cl 100 mM NaCl pH 8.0, 20 °C"}, "[7]": {"tested_on": "B. subtilis", "assay": "MIC, B. subtilis (given with permeabilization assay concentrations)", "assay_type": "cell-based, Bacillus subtilis", "experimental": "(§3) The bacterial cultures were grown overnight at 30 °C in TSB media for S. simulans and at 37 °C in LB medium for Bacillus subtilis. Secondary cultures were grown for 3 h until OD600 = 0.5 was reached. The bacterial cells were then centrifuged at 1,500g for 10 min at 4 °C and washed twice with 10 ml of buffer (10 mM Tris, 100 mM NaCl, 1 mM MgCl2 and 0.5% glucose, pH 7.2). The bacterial cells were resuspended to an OD600 = 10 in the buffer and used for the experiment. […] For the assay, 1 μl of the bacterial suspension was added to 1 ml of buffer. For the ion leakage assays, 1 μl of the DiSC-2 probe from a 1 mM stock was added to the cuvette and the fluorescence was measured between a wavelength of 650 nm and 670 nm (bandwidth of […]) for 2 min before the addition of the antibiotic and 6 min after. For the Sytox green leakage assays, 1 μl of the Sytox green probe from a 0.25 mM stock was added to the cuvette and the fluorescence was measured between a wavelength of 500 nm and 520 nm (bandwidth of […]) for 2 min before the addition of the antibiotic and 6 min after. All experiments were performed in triplicates."}, "[8]": {"assay": "HS-AFM of teixobactin–lipid II fibrils on supported lipid bilayer", "experimental": "as §2"}, "[9]": {"tested_on": "Staphylococcus simulans", "assay": "Sytox green membrane damage assay, S. simulans", "assay_type": "cell-based", "experimental": "as §3"}, "[10]": {"assay": "Static 31P ssNMR: membrane perturbation", "settings": "lipid II-doped DOPC large unilamellar vesicles"}, "[11]": {"tested_on": "S. simulans", "assay": "MIC, S. simulans (given with permeabilization assay concentrations)", "assay_type": "cell-based", "settings": "S. simulans"}},
  "note": "Values joined by “and” are separate entries in the source; they are usually repeats but may differ in a detail not shown here. Equal values may be shown once. “Also recorded” adds a separate entry of the source.",
  "data": [
    {"substance": "teixobactin", "values": [
      {"measurement": "rigidity of lipid II pentapeptide in the complex (in words)", "setting": "[1]", "result": "the pentapeptide is more rigid in the complex with teixobactin than with R4L10-teixobactin"},
      {"measurement": "HS-AFM control result (in words)", "setting": "[2]; membrane height at positions without fibrils, 30 min after teixobactin", "result": "membrane height at positions without fibrils remains unaltered"},
      {"measurement": "membrane height", "setting": "[2]; individual measurement, one line each", "result": "4.81 and 4.99 and 5.22 and 4.65 and 4.79 and 5.05 and 5.1 and 4.77 and 4.67 and 5.01 and 4.5 and 4.97 and 4.95 and 5 and 4.87 and 4.68 and 4.96 and 4.63 and 4.88 and 4.89 and 4.9 and 5.12 and 4.8"},
      {"measurement": "membrane height", "setting": "[2]; mean", "result": 4.873},
      {"measurement": "membrane topology (in words)", "setting": "[3]", "result": "localizes at the water–membrane interface with the hydrophobic residues Ile2, Ile5 and Ile6 partitioned in the bilayer"},
      {"measurement": "GUV oligomerization and membrane perturbation (in words)", "setting": "[4]", "result": "formation of micron-sized teixobactin–lipid II oligomers; also recorded: pronounced concave membrane perturbations at the oligomerization sites"},
      {"measurement": "overall dynamics in the complex (in words)", "setting": "[5]", "result": "The overall dynamics of the molecule is very slow"},
      {"measurement": "oligomerization by pyrene-tagged lipid II (in words)", "setting": "[6]", "result": "with the increase in teixobactin concentration there is a relative decrease in the monomer signal followed by a respective increase in the excimer signal; also recorded: oligomers form immediately after the addition of teixobactin"},
      {"measurement": "concentration stated as 10× MIC", "setting": "[7]", "result": 0.2, "unit": "µM"},
      {"measurement": "depth of fibrillar sheets below the membrane surface (membrane thinning)", "setting": "[8]; 50 min after 800 nM teixobactin", "result": "approximately 0.5 nm"},
      {"measurement": "height of fibrils on the membrane surface", "setting": "[8]; DOPC bilayer with lipid II, 10 mM Tris-Cl 100 mM NaCl pH 8.0, error is standard deviation", "result": "0.8 ± 0.1", "unit": "nm"},
      {"measurement": "peak-to-peak distance between fibrils in sheets", "setting": "[8]; after the fibrils have descended into the surface", "result": "~ 8 nm"},
      {"measurement": "formation of fibrils (in words)", "setting": "[8]; lipid II-doped bilayer", "result": "Fibrils were solely observed in the presence of both teixobactin and lipid II; also recorded: fibrils solely form in the presence of both teixobactin and Lipid II"},
      {"measurement": "membrane damage, Sytox green (in words)", "setting": "[9]; Sytox green, Gram-positive bacteria, 20 °C, pH 7.2, 2 min before and 6 min after antibiotic, triplicates", "result": "Although less pronounced than for nisin, teixobactin also showed clear effects with Sytox green"},
      {"measurement": "time of membrane defects in intact bacteria", "setting": "[9]; intact bacteria, DiSC / Sytox green assays", "result": "≤ 10", "unit": "min"},
      {"measurement": "membrane perturbation by static 31P ssNMR (in words)", "setting": "[10]", "result": "incubation with teixobactin markedly changed the signal"},
      {"measurement": "concentration stated as 1× MIC", "setting": "[11]", "result": 0.5, "unit": "µM"}
    ]}
  ]
}
